Entries after “also recorded” stand apart in the source; their conditions may differ.
Assays:
[1] = system: DRG explants in dual hydrogel constructs; assay type: cell-based, rat; conditions: for response duration before (t1-t5) vs after (t16-t20) drug wash-in / response amplitude before (t1-t5) vs after (t16-t20) drug wash-in: 20 μM DNQX and 50 μM APV applied together; for response duration before (t1-t5) vs after (t16-t20) drug wash-in: n=4, at half-peak; for response amplitude before (t1-t5) vs after (t16-t20) drug wash-in: n=4, peak-to-peak
[2] = system: neuronal cell death in vitro; conditions: cited from earlier work
[3] = system: DRG/Schwann cell co-culture; experiment: DRG/SC three-dimensional co-culture: neurite growth and myelin formation (immunohistochemistry, confocal); assay type: cell-based, rat
Description: The dual hydrogel culture system was fabricated using a digital projection photolithography, as described above. A schematic of the process is seen in FIG. 13. In brief, a photolithography apparatus comprised of a collimated UV light source (OmniCure 1000 with 320-500 nm filter, EXFO, Quebec, Canada) and a visible light source (SOLA light engine with […] filter, Lumencor, Oreg., USA), a digital micromirror device (DMD) (Discovery™ 3000, Texas Instruments, Dallas, Tex.) as a dynamic photomask and a 2× Plan Fluor objective lens (Nikon Instruments, Tokyo, Japan) were utilized to irradiate the photocurable hydrogel solution that was contained in a permeable cell culture insert with 0.4 μm pore size. The inserts were either collagen-coated PTFE Transwell® Permeable Support or Transwell™ Clear Polyester Membrane Inserts (Corning Inc., Corning, N.Y., USA) to investigate the influence of collagenated substrates on SC/neuron incorporation. The dual hydrogel system consists of two compartments: a cell permissive section that contains neurons and a cell restrictive section that acts as a hydrogel mold. In order to make the cell restrictive section, a solution of 10% (w/v) PEG-diacrylate (Mn 1000; Polysciences Inc., Warrington, Pa.) and 0.5% (w/v) Irgacure 2959 in PBS was irradiated with 85 mW/cm2 UV light as measured by a radiometer (306 UV Powermeter, Optical Associates, San Jose, Calif.), for 38 seconds to make a PEG micromold, shown in FIG. 13. The cell culture insert was treated with filtered Rain-X® Original Glass Treatment (RainX, Houston, Tex.) prior to addition of the gel solution in order to avoid meniscus behavior. 0.5 ml of solution was added to each 6-well plate insert. Addition of 0.5 ml solution results in a gel thickness of 480 μm. Hydrogel constructs were washed in DPBS with 1% antibiotic-antimycotic additive to inhibit contamination.
As the first step of the co-culture, the primary tissue culture was performed. The PEG constructs were prepared and immersed in the adhesion media and incubated (37° C., 5% C02) overnight prior to the tissue culture. The adhesion media was comprised of Neurobasal medium supplemented with B27 (2% v/v), L-glutamine (0.25% v/v), nerve growth factor (NGF) (0.02 μg/ml), fetal bovine serum (FBS) (10% v/v/) and penicillin/streptomycin (1% v/v) (all from Life Technologies, CA). The constructs were then cultured with Long Evans rat embryo dorsal root ganglion (DRG) tissue, in keeping with the guidelines of the Institutional Animal Care and Use Committee. The DRGs were isolated from embryonic day 15 rat embryos and trimmed prior to the culture. A single DRG explant was placed in each construct. The DRGs were then incubated in fresh adhesion media overnight to allow the tissue to adhere to the insert
The SCs were dispersed in 50% MeDex solution in SC medium as described above to reach a cell count of 20×10^6 cell/mL. In order to achieve an evenly distributed single cell solution, the gel mixture was pipetted up and down vigorously. The adhesion medium was aspirated from the channels gently to avoid disturbing the adhered DRGs and 2 μL of the MeDex single cell solution was added to each PEG micromold. A negative photomask was loaded on the DMD and the gel solution in the channel was crosslinked with 85 mW/cm^2 visible light as measured by a radiometer (306 UV Powermeter, Optical Associates, San Jose, Calif.) after 30 seconds of irradiation using a visible light source (SOLA light engine with 375-650 nm filter, Lumencor, Oreg., USA). The constructs were gently washed using the wash buffer described above three times.
In order to understand the influence of various media regimens on the behavior of DRGs and SCs in a three-dimensional co-culture, two different culture systems were applied. The culture systems are described in Table 2. Culture System 1 has two phases where Media 1 (10 days) and 2 (15 days) are applied in that order. […]

DRG neurites = experiment: DRG neurite growth toward a factor diffusing from a reservoir in the hydrogel construct; assay type: cell-based; conditions: NGF vs BSA diffusing from a reservoir, FIG. 28
Retinal explants = experiment: Retinal explant culture in 3D micropatterned hydrogels; assay type: cell-based, rat; conditions: neurobasal Sato medium supplemented with the factor, one week, β-III tubulin
Method: Work and experimental data for the dorsal root ganglia model is presented in the present disclosure. For a central nervous system model, the growth of retinal explants has also been explored. FIGS. 27A-27B depict a culture of retinal (CNS) tissue. Retinal explants from embryonic rats were cultured within 3D micropatterned hydrogels in “neurobasal Sato” medium supplemented with either ciliary neurotrophic factor CNTF ([…]) or brain-derived neurotrophic factor BDNF ([…]).

## O=C1N=c2cc([N+](=O)[O-])c([N+](=O)[O-])cc2=NC1=O [DNQX, 6,7-dinitroquinoxaline-2,3Dione]
[1]
  response duration before (t1-t5) vs after (t16-t20) drug wash-in: no statistically significant difference; also recorded: no marked change
  response amplitude before (t1-t5) vs after (t16-t20) drug wash-in: no statistically significant difference; also recorded: no marked change

## N[C@H](CCCP(=O)(O)O)C(=O)O [APV, (2R)-amino-5-phosphonopentanoate]
[1]
  response duration before (t1-t5) vs after (t16-t20) drug wash-in: no statistically significant difference; also recorded: no marked change
  response amplitude before (t1-t5) vs after (t16-t20) drug wash-in: no statistically significant difference; also recorded: no marked change

## CC[C@]1(O)C[C@H]2CN(CCc3c([nH]c4ccccc34)[C@@](C(=O)OC)(c3cc4c(cc3OC)N(C=O)[C@H]3[C@@](O)(C(=O)OC)[C@H](OC(C)=O)[C@]5(CC)C=CCN6CC[C@]43[C@@H]65)C2)C1 [Vincristine]
[2]
  Neurotoxic dose: 0.1 µM

## CC(C)C[C@H](NC(=O)[C@H](Cc1ccccc1)NC(=O)c1cnccn1)B(O)O [Bortezomib]
[2]
  Neurotoxic dose: 0.02 µM

## NC1=N[C@H](O)[C@H]2[C@H]3O[C@]4(O)O[C@@H]([C@@H](O)[C@@]2(N1)[C@@H]4O)[C@]3(O)CO [TTX, tetrodotoxin]
[1]
  average response amplitude (peak-to-peak) after wash-in: 0.04 μV
  effect on CAP / population response: reversibly abolished; also recorded: completely abolished; also recorded: abolishment of population response
  time to complete abolishment of responses: ≤ 2 min

## collagen
[3]; 25 days, addition of collagen I and III
  amount of myelin formation: increased
[3]; 25 days, collagen-coated inserts, n=15-18 constructs
  volume of neuronal outgrowth, cultures with vs without collagen: significantly higher volume; also recorded: significantly more neuronal growth
[3]; 25 days, presence of collagen, FIG. 17B
  amount of MBP-positive myelin: increased
[3]; 25 days, presence of collagen, FIG. 18B
  amount of PO-positive myelin: increased

## O=C1O[C@H]([C@@H](O)CO)C(O)=C1O [AA, L-ascorbic acid]
[3]; 25 days of media containing AA (NCol-25, Col-25)
  amount of myelin: considerable increase
[3]; longer exposures to AA, MBP, MAG, PO stains
  ratio of myelin to neuronal growth (percentage of myelin): increases

## NGF: nerve growth factor
DRG neurites
  direction of DRG neurite growth: grow preferentially toward NGF

## CC(=O)O[C@H]1C(=O)[C@@]2(C)[C@H]([C@H](OC(=O)c3ccccc3)[C@]3(O)C[C@H](OC(=O)[C@H](O)[C@@H](NC(=O)c4ccccc4)c4ccccc4)C(C)=C1C3(C)C)[C@]1(OC(C)=O)CO[C@@H]1C[C@@H]2O [Paclitaxel]
[2]
  Neurotoxic dose: 0.1 µM

B1: BDNF: brain-derived neurotrophic factor (protein, UniProt P23560 19-247, looked up)
Neurotrophic factor BDNF …: APMKEANIRGQGGLAYPGVRTHGTLESVNGPKAGSRGLTSLADTFEHVIEELLDEDQKVRPNEENNKDADLYTSRVMLSSQVPLEPPLLFLLEEYKNYLDAANMSMRVRRHSDPARRGELSVCDSISEWVTAADKKTAVDMSGGTVTVLEKVPVSKGQLKQYFYETKCNPMGYTKEGCRGIDKRHWNSQCRTTQSYVRALTMDSKKRIGWRFIRIDTSCVCTLTIKRGR
Retinal explants
  retinal ganglion cell axon extension: Observable retinal ganglion cell axon extension

B2: CNTF: ciliary neurotrophic factor (protein, UniProt P26441 1-200, looked up)
Ciliary neurotrophic factor: MAFTEHSPLTPHRRDLCSRSIWLARKIRSDLTALTESYVKHQGLNKNINLDSADGMPVASTDQWSELTEAERLQENLQAYRTFHVLLARLLEDQQVHFTPTEGDFHQAIHTLLLQVAAFAYQIEELMILLEYKIPRNEADGMPINVGDGGLFEKKLWGLKVLQELSQWTVRSIHDLRFISSHQTGIPARGSHYIANNKKM
Retinal explants
  retinal ganglion cell axon extension: Observable retinal ganglion cell axon extension
